33 compounds from patent publication US6960574B2, “Antagonists of RF-amide neuropeptides” (University of Florida, priority 2002, dated 2005) can be followed below.

Molecules are shown by their SMILES. Peptide text beside a SMILES is read from it. * marks the point of attachment. Dansyl = CN(C)c1cccc2c(S(=O)(=O)*)cccc12

This experiment deals with receptor labeled by the radioiodinated analogue of 1 (4, [125I]-YLFQPQRF-NH2); neuropeptide FF receptor. The experiment is described as follows: Competitive radioligand binding against 4 ([125I]Y8F-amide). Conditions: mixture-based positional scanning; difference from averaged radioligand displacement of whole library (0); about 80 a.u. = 10-fold change in Ki. The text has this:
Additionally, three-dimensional (3-D) molecular models of the known smaller-size neuropeptide FF antagonists 3 and 3a were constructed and their low-energy conformations were obtained in the AMBER force-field [Weiner, et al., J. Comput. Chem. 1986, 7, […].] by molecular dynamics calculations involving simulated annealing. A semi-empirical quantum chemical method with the PM3 parameterization [Stewart, J. Comput. Chem. 1989, 10, 209-220.] was used for the final geometry optimization. […] At least one of the rings in domain B is aromatic. No similarity between 3 and 3a outside these domains were apparent; therefore, the simultaneous presence of A and B domains in the structure of neuropeptide FF (1) antagonists is critical to the invention. Apparently, structural subunits (domain C) outside domains A and B should function in a cooperative manner in directing the pharmacophores into proper geometric positions when improved binding to the cognate receptor is to be obtained, which is associated with the improvement of the desired pharmacological effect. An approach involving mixture-based synthetic combinatorial libraries and positional scanning [(a) Houghten, et al., J. Med Chem. 1999, 42, 3743-3778.] was adopted in the search for preferred structural motifs in domain C that assist in achieving this objective in this invention. To allow for the use of 3 as a reference in this process, the guadinino group (A) was incorporated as part of an L-2-amino-5-{[amino(imino)methyl]amino}pentanoyl (arginyl, R, Arg) residue and 5-dimethylamino-1-naphthalenesulphonyl (dansyl) was chosen to form B (However, it must be emphasized that both R and dansyl are replaceable with moieties that bestow A and B domain attributes described in the invention).
Upon screening for residues to replace the glutamine of 3, serine (S) was the only building block in this position that increased the displacement of 4 in the radioligand-binding assay. Therefore, motifs present in dansyl-Gly-Ser-Arg-NH2, dansyl-Gly-Gln-Arg-NH2, dansyl-Gln-Ser-Arg-NH2, and dansyl-Gln-Gln-Arg-NH2 were chosen based on their affinity to the cognate receptor for further consideration as primary templates when designing the domain C of the compounds described in the invention herein. […]
(Loss of bound radioactivity is the signal in a displacement assay; it reports binding, not function.)
Consider `CN(C)c1cccc2c(S(=O)(=O)N[C@@H](CCC(N)=O)C(=O)N[C@@H](CC(N)=O)C(=O)N[C@@H](CCCNC(=N)N)C(N)=O)cccc12` [Dansyl-QNR-amide] (Dansyl-Gln-Asn-Arg-NH2), for which the “Relative Binding Index (RBI)” value is 23 a.u.

Take `CN(C)c1cccc2c(S(=O)(=O)N[C@@H](CCC(=O)O)C(=O)N[C@@H](CCCNC(=N)N)C(=O)N[C@@H](CCCNC(=N)N)C(N)=O)cccc12` [Dansyl-ERR-amide] (Dansyl-Glu-Arg-Arg-NH2): the “Relative Binding Index (RBI)” value is reported as 15 a.u.

For the compound `C[C@@H](O)[C@H](NC(=O)[C@H](Cc1ccccc1)NS(=O)(=O)c1cccc2c(N(C)C)cccc12)C(=O)N[C@@H](CCCNC(=N)N)C(N)=O` [Dansyl-FTR-amide] (Dansyl-Phe-Thr-Arg-NH2), the “Relative Binding Index (RBI)” value is reported as 15 a.u.

As to `CN(C)c1cccc2c(S(=O)(=O)N3CCC[C@H]3C(=O)N[C@@H](CO)C(=O)N[C@@H](CCCNC(=N)N)C(N)=O)cccc12` [Dansyl-PSR-amide] (Dansyl-Pro-Ser-Arg-NH2), the “Relative Binding Index (RBI)” value is given as −27 a.u.

As to `CN(C)c1cccc2c(S(=O)(=O)N[C@@H](CC(=O)O)C(=O)N[C@@H](CO)C(=O)N[C@@H](CCCNC(=N)N)C(N)=O)cccc12` [Dansyl-DSR-amide] (Dansyl-Asp-Ser-Arg-NH2), the “Relative Binding Index (RBI)” value came out at 15 a.u.

For the compound `CC(C)[C@H](NS(=O)(=O)c1cccc2c(N(C)C)cccc12)C(=O)N[C@@H](CCC(=O)O)C(=O)N[C@@H](CCCNC(=N)N)C(N)=O` [Dansyl-VER-amide] (Dansyl-Val-Glu-Arg-NH2), the “Relative Binding Index (RBI)” value is −4 a.u.

For the compound `CC(C)[C@H](NC(=O)[C@H](Cc1ccc(O)cc1)NS(=O)(=O)c1cccc2c(N(C)C)cccc12)C(=O)N[C@@H](CCCNC(=N)N)C(N)=O` [Dansyl-YVR-amide] (Dansyl-Tyr-Val-Arg-NH2), the “Relative Binding Index (RBI)” value turned out to be 2 a.u.

With `CN(C)c1cccc2c(S(=O)(=O)N[C@@H](Cc3c[nH]c4ccccc34)C(=O)N[C@@H](Cc3ccc(O)cc3)C(=O)N[C@@H](CCCNC(=N)N)C(N)=O)cccc12` [Dansyl-WYR-amide] (Dansyl-Trp-Tyr-Arg-NH2), the “Relative Binding Index (RBI)” value is listed as 7 a.u.

For the compound `C[C@H](NC(=O)[C@H](CO)NS(=O)(=O)c1cccc2c(N(C)C)cccc12)C(=O)N[C@@H](CCCNC(=N)N)C(N)=O` [Dansyl-SAR-amide] (Dansyl-Ser-Ala-Arg-NH2), the “Relative Binding Index (RBI)” value is given as −33 a.u.

With `CC[C@H](C)[C@H](NC(=O)[C@H](CCCNC(=N)N)NS(=O)(=O)c1cccc2c(N(C)C)cccc12)C(=O)N[C@@H](CCCNC(=N)N)C(N)=O` [Dansyl-RIR-amide] (Dansyl-Arg-Ile-Arg-NH2), the “Relative Binding Index (RBI)” value was 13 a.u.

Take `CC[C@H](C)[C@H](NS(=O)(=O)c1cccc2c(N(C)C)cccc12)C(=O)N[C@@H](CC(N)=O)C(=O)N[C@@H](CCCNC(=N)N)C(N)=O` [Dansyl-INR-amide] (Dansyl-Ile-Asn-Arg-NH2): the “Relative Binding Index (RBI)” value is on record as −10 a.u.

For `CSCC[C@H](NS(=O)(=O)c1cccc2c(N(C)C)cccc12)C(=O)N[C@@H](CC(=O)O)C(=O)N[C@@H](CCCNC(=N)N)C(N)=O` [Dansyl-MDR-amide] (Dansyl-Met-Asp-Arg-NH2), the “Relative Binding Index (RBI)” value was −62 a.u.

Take `CN(C)c1cccc2c(S(=O)(=O)N[C@@H](CC(N)=O)C(=O)N[C@@H](Cc3c[nH]cn3)C(=O)N[C@@H](CCCNC(=N)N)C(N)=O)cccc12` [Dansyl-NHR-amide] (Dansyl-Asn-His-Arg-NH2): the “Relative Binding Index (RBI)” value came to 7 a.u.

Consider `CN(C)c1cccc2c(S(=O)(=O)N[C@@H](CCCNC(=N)N)C(=O)N[C@@H](Cc3ccc(O)cc3)C(=O)N[C@@H](CCCNC(=N)N)C(N)=O)cccc12` [Dansyl-RYR-amide] (Dansyl-Arg-Tyr-Arg-NH2), for which the “Relative Binding Index (RBI)” value is 6 a.u.

As for `CN(C)c1cccc2c(S(=O)(=O)NCC(=O)N[C@@H](Cc3ccc(O)cc3)C(=O)N[C@@H](CCCNC(=N)N)C(N)=O)cccc12` [Dansyl-GYR-amide] (Dansyl-Gly-Tyr-Arg-NH2), the “Relative Binding Index (RBI)” value is 24 a.u.

For `CN(C)c1cccc2c(S(=O)(=O)N[C@@H](CC(N)=O)C(=O)N3CCC[C@H]3C(=O)N[C@@H](CCCNC(=N)N)C(N)=O)cccc12` [Dansyl-NPR-amide] (Dansyl-Asn-Pro-Arg-NH2), the “Relative Binding Index (RBI)” value is recorded as 16 a.u.

With `CN(C)c1cccc2c(S(=O)(=O)N[C@@H](CCCNC(=N)N)C(=O)NCC(=O)N[C@@H](CCCNC(=N)N)C(N)=O)cccc12` [Dansyl-RGR-amide] (Dansyl-Arg-Gly-Arg-NH2), the “Relative Binding Index (RBI)” value was 12 a.u.

Regarding `CSCC[C@H](NS(=O)(=O)c1cccc2c(N(C)C)cccc12)C(=O)NCC(=O)N[C@@H](CCCNC(=N)N)C(N)=O` [Dansyl-MGR-amide] (Dansyl-Met-Gly-Arg-NH2), the “Relative Binding Index (RBI)” value is listed as −39 a.u.

Regarding `CN(C)c1cccc2c(S(=O)(=O)N[C@@H](CO)C(=O)N[C@@H](CC(=O)O)C(=O)N[C@@H](CCCNC(=N)N)C(N)=O)cccc12` [Dansyl-SDR-amide] (Dansyl-Ser-Asp-Arg-NH2), the “Relative Binding Index (RBI)” value is recorded as −2 a.u.

In the case of `CN(C)c1cccc2c(S(=O)(=O)N[C@@H](Cc3ccc(O)cc3)C(=O)N[C@@H](Cc3ccc(O)cc3)C(=O)N[C@@H](CCCNC(=N)N)C(N)=O)cccc12` [Dansyl-YYR-amide] (Dansyl-Tyr-Tyr-Arg-NH2), the “Relative Binding Index (RBI)” value was found to be 6 a.u.

Take `CC(C)[C@H](NS(=O)(=O)c1cccc2c(N(C)C)cccc12)C(=O)N[C@@H](CCCCN)C(=O)N[C@@H](CCCNC(=N)N)C(N)=O` [Dansyl-VKR-amide] (Dansyl-Val-Lys-Arg-NH2): the “Relative Binding Index (RBI)” value is reported as −7 a.u.

Regarding `CC(C)C[C@H](NC(=O)[C@H](Cc1cnc[nH]1)NS(=O)(=O)c1cccc2c(N(C)C)cccc12)C(=O)N[C@@H](CCCNC(=N)N)C(N)=O` [Dansyl-HLR-amide] (Dansyl-His-Leu-Arg-NH2), the “Relative Binding Index (RBI)” value stood at 8 a.u.

With `CN(C)c1cccc2c(S(=O)(=O)NCC(=O)N[C@@H](Cc3ccccc3)C(=O)N[C@@H](CCCNC(=N)N)C(N)=O)cccc12` [Dansyl-GFR-amide] (Dansyl-Gly-Phe-Arg-NH2), the “Relative Binding Index (RBI)” value was 24 a.u.

As to `CN(C)c1cccc2c(S(=O)(=O)NCC(=O)N[C@@H](Cc3c[nH]cn3)C(=O)N[C@@H](CCCNC(=N)N)C(N)=O)cccc12` [Dansyl-GHR-amide] (Dansyl-Gly-His-Arg-NH2), the “Relative Binding Index (RBI)” value amounted to 19 a.u.

Regarding `CSCC[C@H](NC(=O)[C@H](CC(N)=O)NS(=O)(=O)c1cccc2c(N(C)C)cccc12)C(=O)N[C@@H](CCCNC(=N)N)C(N)=O` [Dansyl-NMR-amide] (Dansyl-Asn-Met-Arg-NH2), the “Relative Binding Index (RBI)” value stood at 13 a.u.

Consider `CN(C)c1cccc2c(S(=O)(=O)N[C@@H](CC(N)=O)C(=O)N[C@@H](CCC(N)=O)C(=O)N[C@@H](CCCNC(=N)N)C(N)=O)cccc12` [Dansyl-NQR-amide] (Dansyl-Asn-Gln-Arg-NH2), for which the “Relative Binding Index (RBI)” value turned out to be 26 a.u.

On to `CN(C)c1cccc2c(S(=O)(=O)N[C@@H](Cc3ccc(O)cc3)C(=O)NCC(=O)N[C@@H](CCCNC(=N)N)C(N)=O)cccc12` [Dansyl-YGR-amide] (Dansyl-Tyr-Gly-Arg-NH2), for which the “Relative Binding Index (RBI)” value is 12 a.u.

In the case of `CC[C@H](C)[C@H](NC(=O)[C@H](CCC(=O)O)NS(=O)(=O)c1cccc2c(N(C)C)cccc12)C(=O)N[C@@H](CCCNC(=N)N)C(N)=O` [Dansyl-EIR-amide] (Dansyl-Glu-Ile-Arg-NH2), the “Relative Binding Index (RBI)” value stood at 23 a.u.

For `CN(C)c1cccc2c(S(=O)(=O)N[C@@H](Cc3ccc(O)cc3)C(=O)N[C@@H](CCC(=O)O)C(=O)N[C@@H](CCCNC(=N)N)C(N)=O)cccc12` [Dansyl-YER-amide] (Dansyl-Tyr-Glu-Arg-NH2), the “Relative Binding Index (RBI)” value turned out to be 7 a.u.

As to `CC[C@H](C)[C@H](NS(=O)(=O)c1cccc2c(N(C)C)cccc12)C(=O)N[C@@H](CO)C(=O)N[C@@H](CCCNC(=N)N)C(N)=O` [Dansyl-ISR-amide] (Dansyl-Ile-Ser-Arg-NH2), the “Relative Binding Index (RBI)” value is recorded as 10 a.u.

Take `CN(C)c1cccc2c(S(=O)(=O)N[C@@H](Cc3cnc[nH]3)C(=O)N3CCC[C@H]3C(=O)N[C@@H](CCCNC(=N)N)C(N)=O)cccc12` [Dansyl-HPR-amide] (Dansyl-His-Pro-Arg-NH2): the “Relative Binding Index (RBI)” value is on record as 20 a.u.

As to `CN(C)c1cccc2c(S(=O)(=O)N[C@@H](CCCNC(=N)N)C(=O)N[C@@H](CCCNC(=N)N)C(=O)N[C@@H](CCCNC(=N)N)C(N)=O)cccc12` [Dansyl-RRR-amide] (Dansyl-Arg-Arg-Arg-NH2), the “Relative Binding Index (RBI)” value is reported as 5 a.u.

With `CN(C)c1cccc2c(S(=O)(=O)N[C@@H](Cc3c[nH]cn3)C(=O)N[C@@H](CC(N)=O)C(=O)N[C@@H](CCCNC(=N)N)C(N)=O)cccc12` [Dansyl-HNR-amide] (Dansyl-His-Asn-Arg-NH2), the “Relative Binding Index (RBI)” value was 18 a.u.
